The text below walks through data of patent publication US20260274892A1, “MACROCYCLIC BROAD SPECTRUM ANTIBIOTICS” (RQx Pharmaceuticals, Inc., priority 2017, published 2026).

Experiment [1] has as its system Escherichia coli ATCC 25922. Briefly: Minimum inhibitory concentration (MIC), CLSI broth micro-dilution, E. coli. The following applies: Escherichia coli, ATCC25922, 22 h, Table 6, cation adjusted Mueller Hinton Broth + 0.002% Tween-80, 35° C. The experiment is classed as cell-based. In outline: (§1)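 Antibacterial potency is measured as MIC by the CLSI broth dilution method. Bacteria at OD600 0.0005 in Tween-80-supplemented cation-adjusted Mueller Hinton broth face ten twofold compound dilutions for 22 h at 35° C.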
(Broth dilution looks for growth in wells or tubes with falling amounts of substance.)

The test system of experiment [2] is Methicillin Resistant Staphylococcus aureus strain USA 200. The experiment can be described thus: Minimum inhibitory concentration (MIC), CLSI broth micro-dilution, S. aureus. The format is cell-based. The conditions noted are these: Staphylococcus aureus, MRSA / USA200; Table 6; MRSA USA 200; cation adjusted Mueller Hinton Broth + 0.002% Tween-80; 35° C., 22 hours. In outline:
as §1

Molecules are shown by their SMILES.

For orientation: MIC means the least concentration at which growth counts as inhibited.

On to `Cc1nc(-c2ccc(N3CCCCCC3)cc2)nc(C)c1C(=O)N[C@@H](CCN)C(=O)N(C)[C@@H]1C(=O)N[C@@H](C)C(=O)N[C@H](C(=O)NCC#N)Cc2ccc(OCCN)c(c2)-c2cc1ccc2OCCN` (racemic) [Compound 325, rac-(8S,11S,14S)-3,18-bis(2-aminoethoxy)-N-(cyanomethyl)-11-methyl-14-[methyl-[rac-(2S)-4-amino-2-[[2-[4-(azepan-1-yl)phenyl]-4,6-dimethyl-pyrimidine-5-carbonyl]amino]butanoyl]amino]-10,13-dioxo-9,12-diazatricyclo[13.3.1.12,6]icosa-1(18),2(20),3,5,15(19),16-hexaene-8-carboxamide], for which the results for the MIC in experiment [1] and in experiment [2] were 0.13 µM and 0.016 µM, respectively.
With `C[C@@H]1NC(=O)[C@@H](N(C)C(=O)[C@H](CCN)NC(=O)C2CCN(c3ccc(C(C)(C)C)cc3)CC2)c2ccc(OCCN)c(c2)-c2cc(ccc2OCCN)C[C@@H](C(=O)NCC#N)NC1=O` (racemic) [Compound 389, rac-(8S,11S,14S)-3,18-bis(2-aminoethoxy)-N-(cyanomethyl)-11-methyl-14-[methyl-[rac-(2S)-4-amino-2-[[1-(4-tert-butylphenyl)piperidine-4-carbonyl]amino]butanoyl]amino]-10,13-dioxo-9,12-diazatricyclo[13.3.1.12,6]icosa-1(18),2(20),3,5,15(19),16-hexaene-8-carboxamide], the minimum inhibitory concentration (MIC) in experiment [1] was found to be 4 µM; in experiment [2] it was 0.13 µM.
The matching figures for `COc1nc(-c2ccc(C(C)(C)C)cc2)nc(C)c1C(=O)N[C@@H](CCN)C(=O)N(C)[C@@H]1C(=O)N[C@@H](C)C(=O)N[C@H](C(=O)NCC#N)Cc2ccc(OCCN)c(c2)-c2cc1ccc2OCCN` (racemic) [Compound 422, rac-(8S,11S,14S)-3,18-bis(2-aminoethoxy)-N-(cyanomethyl)-11-methyl-14-[methyl-[rac-(2S)-4-amino-2-[[2-(4-tert-butylphenyl)-4-methoxy-6-methyl-pyrimidine-5-carbonyl]amino]butanoyl]amino]-10,13-dioxo-9,12-diazatricyclo[13.3.1.12,6]icosa-1(18),2(20),3,5,15(19),16-hexaene-8-carboxamide]: 0.38 µM and 0.031 µM.
For `CCCc1nc(-c2ccc(C(C)(C)C)cc2)nc(C)c1C(=O)N[C@@H](CCN)C(=O)N(C)[C@@H]1C(=O)N[C@@H](C)C(=O)N[C@H](C(=O)NCC#N)Cc2ccc(OCCN)c(c2)-c2cc1ccc2OCCN` [Compound 486] the same measures were 0.38 µM and 0.023 µM.
The matching figures for `Cc1nc(-c2ccc(C(C)(C)C)cc2)nc(C)c1C(=O)N[C@H](CO)C(=O)N[C@@H](CCN)C(=O)N(C)[C@@H]1C(=O)N[C@@H](C)C(=O)N[C@H](C(=O)NCC#N)Cc2ccc(OCCN)c(c2)-c2cc1ccc2OCCN` (racemic) [Compound 467, rac-(8S,11S,14S)-3,18-bis(2-aminoethoxy)-N-(cyanomethyl)-11-methyl-14-[methyl-[rac-(2S)-4-amino-2-[[rac-(2R)-2-[[2-(4-tert-butylphenyl)-4,6-dimethyl-pyrimidine-5-carbonyl]amino]-3-hydroxy-propanoyl]amino]butanoyl]amino]-10,13-dioxo-9,12-diazatricyclo[13.3.1.12,6]icosa-1(18),2(20),3,5,15(19),16-hexaene-8-carboxamide]: 8 µM and 0.19 µM.
As for `Cc1nc(-c2ccc(C3CCC3)cc2)nc(C)c1C(=O)N[C@@H](CCN)C(=O)N(C)[C@@H]1C(=O)N[C@@H](C)C(=O)N[C@H](C(=O)NCC#N)Cc2ccc(OCCN)c(c2)-c2cc1ccc2OCCN` (racemic) [Compound 301, rac-(8S,11S,14S)-3,18-bis(2-aminoethoxy)-N-(cyanomethyl)-11-methyl-14-[methyl-[rac-(2S)-4-amino-2-[[2-(4-cyclobutylphenyl)-4,6-dimethyl-pyrimidine-5-carbonyl]amino]butanoyl]amino]-10,13-dioxo-9,12-diazatricyclo[13.3.1.12,6]icosa-1(18),2(20),3,5,15(19),16-hexaene-8-carboxamide], the MIC in experiment [1] was determined as 0.094 µM; in experiment [2] it was 0.016 µM.
For the molecule `C[C@@H]1NC(=O)[C@@H](N(C)C(=O)[C@H](CCN)NC(=O)c2ccc(-c3ccc(C(C)(C)C)cc3)nc2N)c2ccc(OCCN)c(c2)-c2cc(ccc2OCCN)C[C@@H](C(=O)NCC#N)NC1=O` (racemic) [Compound 412, rac-(8S,11S,14S)-3,18-bis(2-aminoethoxy)-N-(cyanomethyl)-11-methyl-14-[methyl-[rac-(2S)-4-amino-2-[[2-amino-6-(4-tert-butylphenyl)pyridine-3-carbonyl]amino]butanoyl]amino]-10,13-dioxo-9,12-diazatricyclo[13.3.1.12,6]icosa-1(18),2(20),3,5,15(19),16-hexaene-8-carboxamide], the MIC in experiment [1] amounted to 0.5 µM; in experiment [2] it was 0.023 µM.
For `Cc1nc(-c2ccc(C(C)(C)C)cc2)ncc1C(=O)N[C@@H](CCN)C(=O)N(C)[C@@H]1C(=O)N[C@@H](C)C(=O)N[C@H](C(=O)NCC#N)Cc2ccc(O)c(c2)-c2cc1ccc2OCCN` (racemic) [Compound 523, rac-(8S,11S,14S)-18-(2-aminoethoxy)-N-(cyanomethyl)-3-hydroxy-11-methyl-14-[methyl-[rac-(2S)-4-amino-2-[[2-(4-tert-butylphenyl)-4-methyl-pyrimidine-5-carbonyl]amino]butanoyl]amino]-10,13-dioxo-9,12-diazatricyclo[13.3.1.12,6]icosa-1(18),2(20),3,5,15(19),16-hexaene-8-carboxamide] the same measures were 0.28 µM and 0.044 µM.
In the case of `Cc1nc(-c2ccc(C=C3CCCC3)cc2)nc(C)c1C(=O)N[C@@H](CCN)C(=O)N(C)[C@@H]1C(=O)N[C@@H](C)C(=O)N[C@H](C(=O)NCC#N)Cc2ccc(OCCN)c(c2)-c2cc1ccc2OCCN` (racemic) [Compound 274, rac-(8S,11S,14S)-3,18-bis(2-aminoethoxy)-N-(cyanomethyl)-11-methyl-14-[methyl-[rac-(2S)-4-amino-2-[[2-[4-(cyclopentylidenemethyl)phenyl]-4,6-dimethyl-pyrimidine-5-carbonyl]amino]butanoyl]amino]-10,13-dioxo-9,12-diazatricyclo[13.3.1.12,6]icosa-1(18),2(20),3,5,15(19),16-hexaene-8-carboxamide], the MIC was found to be 0.063 µM in experiment [1] and 0.023 µM in experiment [2].
For `CNc1nc(-c2ccc(C(C)(C)C)cc2)ncc1C(=O)N[C@@H](CCN)C(=O)N(C)[C@@H]1C(=O)N[C@@H](C)C(=O)N[C@H](C(=O)NCC#N)Cc2ccc(OCCN)c(c2)-c2cc1ccc2OCCN` [Compound 489] the same measures were 0.38 µM and 0.016 µM.
The matching figures for `Cc1nc(-c2ccc3c(c2)CCC(C)(C)O3)ncc1C(=O)N[C@@H](CCN)C(=O)N(C)[C@@H]1C(=O)N[C@@H](C)C(=O)N[C@H](C(=O)NCC#N)Cc2ccc(OCCN)c(c2)-c2cc1ccc2OCCN` (racemic) [Compound 249, rac-(8S,11S,14S)-3,18-bis(2-aminoethoxy)-N-(cyanomethyl)-11-methyl-14-[methyl-[rac-(2S)-4-amino-2-[[2-(2,2-dimethylchroman-6-yl)-4-methyl-pyrimidine-5-carbonyl]amino]butanoyl]amino]-10,13-dioxo-9,12-diazatricyclo[13.3.1.12,6]icosa-1(18),2(20),3,5,15(19),16-hexaene-8-carboxamide]: 0.35 µM and 0.043 µM.
Take `Cc1cc(-c2ccc3c(c2)CCC3(C)C)nc(C)c1C(=O)N[C@@H](CCN)C(=O)N(C)[C@@H]1C(=O)N[C@@H](C)C(=O)N[C@H](C(=O)NCC#N)Cc2ccc(OCCN)c(c2)-c2cc1ccc2OCCN` (racemic) [Compound 361, rac-(8S,11S,14S)-3,18-bis(2-aminoethoxy)-N-(cyanomethyl)-11-methyl-14-[methyl-[rac-(2S)-4-amino-2-[[6-(1,1-dimethylindan-5-yl)-2,4-dimethyl-pyridine-3-carbonyl]amino]butanoyl]amino]-10,13-dioxo-9,12-diazatricyclo[13.3.1.12,6]icosa-1(18),2(20),3,5,15(19),16-hexaene-8-carboxamide]: the MIC in experiment [1] was found to be 0.13 µM; in experiment [2] it was 0.016 µM.
`Cc1nc(-c2ccc(OCCC(C)(C)C)cc2)nc(C)c1C(=O)N[C@@H](CCN)C(=O)N(C)[C@@H]1C(=O)N[C@@H](C)C(=O)N[C@H](C(=O)NCC#N)Cc2ccc(O)c(c2)-c2cc1ccc2OCCN` (racemic) [Compound 539, rac-(8S,11S,14S)-18-(2-aminoethoxy)-N-(cyanomethyl)-3-hydroxy-11-methyl-14-[methyl-[rac-(2S)-4-amino-2-[[2-[4-(3,3-dimethylbutoxy)phenyl]-4,6-dimethyl-pyrimidine-5-carbonyl]amino]butanoyl]amino]-10,13-dioxo-9,12-diazatricyclo[13.3.1.12,6]icosa-1(18),2(20),3,5,15(19),16-hexaene-8-carboxamide]: the MIC was 0.15 µM in experiment [1] and 0.023 µM in experiment [2].
For `Cc1nc(-c2ccc(OC3CCCCC3)cc2)nc(C)c1C(=O)N[C@@H](CCNS(N)(=O)=O)C(=O)N(C)[C@@H]1C(=O)N[C@@H](C)C(=O)N[C@H](C(=O)NCC#N)Cc2ccc(OCCN)c(c2)-c2cc1ccc2OCCN` [Compound 500, (8S,11S,14S)-3,18-bis(2-aminoethoxy)-N-(cyanomethyl)-14-[[(2S)-2-[[2-[4-(cyclohexoxy)phenyl]-4,6-dimethyl-pyrimidine-5-carbonyl]amino]-4-(sulfamoylamino)butanoyl]-methyl-amino]-11-methyl-10,13-dioxo-9,12-diazatricyclo[13.3.1.12,6]icosa-1(18),2(20),3,5,15(19),16-hexaene-8-carboxamide] the same measures were 0.48 µM and 0.031 µM.
